Source: US20230310453A1, “METHODS FOR EXTRACTING NEUTROPHIL SERINE PROTEASES AND TREATING DIPEPTIDYL PEPTIDASE 1-MEDIATED CONDITIONS” (INSMED, INC., priority 2020, published 2023)

Assays:
Assay type in all cases: in vivo, human
[1] = tested on: active NE; test: Active NE concentration in patients' WBC samples (kinetic NE assay)
Method: (§1) In the NE kinetic assay, an exogenous peptide substrate with high specificity for NE (shown in Table 1A) was cleaved by NE present in the sample, generating a fluorophore reaction product 7-amino 4-methyl coumarin (AMC). The initial rate of this reaction, which is proportional to the amount of active NE in the sample, was measured in relative fluorescence units (RFU) and converted to the concentration of active NE in the sample. Specifically, standards were created via serial dilution of Human NE Stock Protein (Sigma, Cat. No E8140-1UN, see Table 1A) in a standard diluent, which matched the ratio of lysis buffer to Enzyme Buffer (sample diluent) of the sample dilutions on a multi-well plate. Sample dilutions were created on the plate using Enzyme Buffer as the diluent. A 1:25 dilution of either DMSO or NE inhibitor (Abcam, Cat. No ab142154, final concentration 80 μM) in Assay Buffer was added to all wells and allowed to incubate at 37° C. for 15 minutes. […] The plate was immediately read at 350/450 nm (Excitation/Emission) post substrate addition in kinetic mode every 5 minutes for up to 3 hours (minimum 30 minutes) at 37° C. on a BioTek Gen5 Plate Reader. The raw data of the readings were exported into an Excel file for data analysis described below.
(§2) After NE and PR3 are extracted from a WBC pellet using a multi-step repeated pellet lysis process, total NE and PR3 activity in cell lysates may be determined by individually assaying each cell lysate from each lysis step for the enzyme activity and calculating the total activity. Alternatively, the total activity may be determined by pooling the cell lysates for a single NE or PR3 activity assay. […]
(§3) In the trial, subjects were randomized in a 1:1:1 ratio to 3 treatment arms to receive either (i) 10 mg brensocatib once daily; (ii) 25 mg brensocatib once daily, or (iii) matching placebo once daily. […] The time to the first pulmonary exacerbation (primary end point), the rate of pulmonary exacerbations (secondary end point), change in concentration of active NE in sputum, and safety were assessed. […]

[2] = tested on: active CatG; test: Active CatG concentration in patients' sputum samples (kinetic CatG assay); conditions: for % reduction from baseline in sputum samples, active CatG: week 4, reduction in geometric mean
Method: CatG activity was measured in an enzymatic assay using an exogenous peptide substrate. Cleavage of the substrate generated the chromophore or fluorophore reaction product, p-Nitroaniline (pNA), 6-Carboxytetramethylrhodamine (6-TAMRA) or 7-Methoxycoumarin-4-acetic acid (MCA). The initial rate of this reaction is proportional to the amount of active CatG in a sample and was measured in absorbance (ABS) or fluorescence (RFU), depending on the substrate, and converted to the concentration of active CatG in the sample. Specifically, standards were created via serial dilution of stock human CatG protein (Sigma, Cat. No C4428-.25UN) in a standard diluent which matched the ratio of lysis buffer to Enzyme Buffer (sample diluent) of the sample dilutions on plate. Sample dilutions were created on the plate using Enzyme Buffer as the diluent and/or run neat. […] The plate was immediately read at appropriate wavelength according to Table 1B post substrate addition in kinetic mode every 5 minutes for 1.5 hours at 37° C. on a BioTek's Synergy Neo or BioTek's Synergy HIM plate reader with Gen5 Software. […]
as §3
In this example, we further determined the changes from baseline in the concentrations of active PR3 and CatG in the same sputum samples obtained from the patients in the three treatment arms using the kinetic PR3 and CatG assays described in the previous examples, and compared the changes with those of active NE. Additionally, we extracted NE and PR3 from the white blood cells (WBCs) derived from the patients' blood samples, and determined the changes from baseline in the concentrations of active NE and PR3 in the WBC samples using the methods described in Example 7. […]

[3] = tested on: patients with non-cystic fibrosis bronchiectasis (NCFBE); test: Phase 2 randomized, double-blind, placebo-controlled trial: pulmonary exacerbations; conditions: for reduction in the frequency of pulmonary exacerbations as compared to placebo: once daily 24 weeks; for time to the first pulmonary exacerbation (primary end point): vs placebo
Text: We have conducted a phase 2, randomized, double-blind, placebo-controlled trial to assess the efficacy, safety and tolerability, and pharmacokinetics of (2S)—N-{(1S)-1-cyano-2-[4-(3-methyl-2-oxo-2,3-dihydro-1,3-benzoxazol-5-yl) phenyl] ethyl}-1,4-oxazepane-2-carboxamide (brensocatib) administered once daily for 24 weeks in patients with non-cystic fibrosis bronchiectasis (NCFBE). See the details and results of the trial in N Engl J Med. 383(22):2127-2137 (2020); incorporated herein by reference in its entirety for all purposes.
In the trial, subjects were randomized in a 1:1:1 ratio to 3 treatment arms to receive either (i) 10 mg brensocatib once daily; (ii) 25 mg brensocatib once daily, or (iii) matching placebo once daily. Following a screening visit (Visit 1) and a screening period of up to 6 weeks, subjects were randomized at Visit 2 (Day 1, “Baseline”) and returned thereafter for study visits at 2 weeks (Visit 3), 4 weeks (Visit 4), 8 weeks (Visit 5), 12 weeks (Visit 6), 16 weeks (Visit 7), 20 weeks (Visit 8), 24 weeks (Visit 9, end of treatment) and 28 weeks (Visit 10, end of study). During each visit, assessments and procedures were performed, including collection of blood and sputum samples at baseline and weeks 2, 4, 12, 24, and 28 for biomarker assessment. Study treatment occurred between Visits 2-9. The time to the first pulmonary exacerbation (primary end point), the rate of pulmonary exacerbations (secondary end point), change in concentration of active NE in sputum, and safety were assessed. […] Specifically, patients treated with brensocatib experienced a 36% reduction in the 10 mg arm (p=0.04) and a 25% reduction in the 25 mg arm (p=0.17).

[4] = tested on: active NE; test: Active NE concentration in patients' sputum samples; conditions: for % reduction from baseline in sputum samples, active NE: week 4, reduction in geometric mean
Method: as §1, §3
(§4) In this example, we further determined the changes from baseline in the concentrations of active PR3 and CatG in the same sputum samples obtained from the patients in the three treatment arms using the kinetic PR3 and CatG assays described in the previous examples, and compared the changes with those of active NE. […]

[5] = tested on: active PR3; test: Active PR3 concentration in patients' WBC samples (kinetic PR3 assay); conditions: for % reduction from baseline in WBC samples, active PR3: week 4, reduction in arithmetic mean
Method: (§5) Except for using an exogenous peptide substrate specific for PR3 instead of NE, the PR3 kinetic assay is based on the same principle as the NE kinetic assay described above. Cleavage of PR3 Substrate by PR3 present in the sample generated the fluorophore reaction product 2-Aminobenzoyl or Anthraniloyl (Abz). The initial rate of this reaction, which is proportional to the amount of active PR3 in the sample, was measured in RFU and converted to the concentration of active PR3 in the sample. Specifically, standards were created via serial dilution of Human PR3 Stock Protein (Sigma, Cat. No SRP6309-25UG, see Table 1A) in a standard diluent which matched the ratio of lysis buffer to Enzyme Buffer (sample diluent) of the sample dilutions on a multi-well plate. Sample dilutions were created on the plate using Enzyme Buffer as the diluent. A 1:20 dilution of either DMSO or PR3 inhibitor (Abcam, Cat. No ab146184, final concentration 500 μM) in Assay Buffer was added to all wells and allowed to incubate at 37° C. for 15 minutes. Addition of DMSO was used as a placeholder in case future testing required addition of inhibitors for subtraction of nonspecific activity-induced cleavage. Following incubation, PR3 Substrate (Abz-VADCADQ-Lys(DNP), final concentration 100 μM) diluted in Assay Buffer was added to the sample and control wells in that order, and briefly mixed via pipetting 2-3 times. The plate was immediately read at 340/430 nm (Excitation/Emission) post substrate addition in kinetic mode every 5 minutes for up to 3 hours (minimum 30 minutes) at 37° C. on a BioTek Gen5 Plate Reader. The raw data of the readings were exported into an Excel file for data analysis described below.
as §2

[6] = tested on: active PR3; test: Active PR3 concentration in patients' sputum samples (kinetic PR3 assay); conditions: for % reduction from baseline in sputum samples, active PR3: week 4, reduction in geometric mean
Method: as §5, with “Addition of DMSO was used as a placeholder in case future testing required addition of inhibitors for subtraction of nonspecific activity-induced cleavage. Following incubation, PR3 Substrate (Abz-VADCADQ-Lys(DNP), final concentration 100 μM) diluted in Assay Buffer was added to the sample and control wells in that order, and briefly mixed via pipetting 2-3 times.” left out
as §3, §4

Question: Which results are given for `Cn1c(=O)oc2ccc(-c3ccc(C[C@@H](C#N)NC(=O)[C@@H]4CNCCCO4)cc3)cc21` [brensocatib, (2S)—N-{(1S)-1-cyano-2-[4-(3-methyl-2-oxo-2,3-dihydro-1,3-benzoxazol-5-yl)phenyl]ethyl}-1,4-oxazepane-2-carboxamide]?
Answer: change from baseline in concentration of active NE in WBC samples (time course) ([1]; 10 mg and 25 mg arms, 24-week treatment, FIG. 14A): reduced by brensocatib treatment by week 4 in a dose-dependent manner; % reduction from baseline in WBC samples, active NE ([1]; 10 mg daily, week 4, reduction in arithmetic mean): 19%; time for reduced active NE concentrations in WBC samples to recover to baseline levels after the end of the treatment period ([1]; after 24-week treatment, FIG. 14A): about 4 weeks; change from baseline in sputum concentration of active CatG (time course) ([2]; 10 mg and 25 mg arms, FIG. 13C): reduced by brensocatib treatment by week 4 in a dose-dependent manner; % reduction from baseline in sputum samples, active CatG ([2]; 10 mg daily): 90%; % reduction from baseline in sputum samples, active CatG ([2]; 25 mg daily): 93%; reduction in the frequency of pulmonary exacerbations as compared to placebo ([3]; 10 mg arm, p=0.04): 36%; time to the first pulmonary exacerbation (primary end point) ([3]; 10 mg once daily for 24 weeks, p=0.03): prolonged the time to the first exacerbation; reduction in the frequency of pulmonary exacerbations as compared to placebo ([3]; 25 mg arm, p=0.17): 25%; time to the first pulmonary exacerbation (primary end point) ([3]; 25 mg once daily for 24 weeks, p=0.04): prolonged the time to the first exacerbation; change from baseline in sputum concentration of active NE (time course) ([4]; 10 mg and 25 mg arms, FIG. 13A): reduced by brensocatib treatment by week 4 in a dose-dependent manner; % reduction from baseline in sputum samples, active NE ([4]; 10 mg daily): 86%; % reduction from baseline in sputum samples, active NE ([4]; 25 mg daily): 91%; change from baseline in concentration of active PR3 in WBC samples (time course) ([5]; 10 mg and 25 mg arms, FIG. 14B): reduced by brensocatib treatment to a lesser extent than the active NE concentrations; % reduction from baseline in WBC samples, active PR3 ([5]; 10 mg daily): No reduction; % reduction from baseline in WBC samples, active PR3 ([5]; 25 mg daily): 34%; change from baseline in sputum concentration of active PR3 (time course) ([6]; 10 mg and 25 mg arms, FIG. 13B): reduced by brensocatib treatment by week 4 in a dose-dependent manner; % reduction from baseline in sputum samples, active PR3 ([6]; 10 mg daily): 21%; % reduction from baseline in sputum samples, active PR3 ([6]; 25 mg daily): 53%
